Measurements taken from patent US20060263502A1, “Absorbent material for use in humid conditions” (priority 2003, published 2006).

Experiment: Sensitivity to moisture of tetrazine compounds in polystyrene
Format: physicochemical
Conditions: 0.2M in polystyrene film about 130 μm; relative humidity 93% at 25° C.; at least 42 days; absorbance 500-550 nm
Method: The depletion of the tetrazine compound, as measured by % absorbance change, was used to indicate the sensitivity to moisture of the tetrazine compounds.
Compositions were prepared by blending the tetrazine compounds at a concentration of 0.2M into polystyrene. Each composition was then compression moulded to form a film having a thickness of about 130 μm. Each film sample was then mounted in a cell holder and the maximum absorbance between 500-550 nm measured. The cell holders containing the film samples were then placed on a mesh platform in a 550 mL squat glass jar fitted with a screw cap and polypropylene wad seal. To achieve a relative humidity of 93% at 25° C., a saturated solution of potassium nitrate covered the bottom of the jars (approx. 10 mm below the mesh platform). The jars were stored in a controlled-temperature room at 25° C.
At intervals of several days for at least 42 days, samples were in turn removed from their jars, and the maximum absorbance recorded between 500-550 nm, before immediately returning them to the controlled-temperature room in their sealed jars.

- sensitivity to moisture (depletion of the tetrazine compound, as measured by % absorbance change): highly unstable to moisture
Compound: COC(=O)c1nnc(C(=O)OC)nn1 [DMTD, dimethyl-1,2,4,5-tetrazine-3,6-dicarboxylate, reference compound]
